Source: patent US20090269406A1, “Therapeutic uses of biocompatible biogel compositions” (priority 2008, published 2009)
Peptide text beside a SMILES is read from it. * marks the point of attachment. Dansyl = CN(C)c1cccc2c(S(=O)(=O)*)cccc12

Test: Effect of heparin-binding peptides on cellular viability (CellTiter 96 AQueous colorimetric metabolic assay)
Conditions: mouse, 3T3 fibroblasts
Protocol: 3T3 fibroblasts were incubated with various doses of W-PBD1 () and dG-PBD1 (▪) peptide (n=3). Viability was measured using a colorimetric metabolic assay based on the reduction of a tetrazolium salt into a formazan product.
In one example to show toxicity of two heparin binding peptides, 3T3 fibroblasts were treated with various concentrations of two different heparin binding peptides. Cell viability was assessed using the CellTiter 96® AQueous reagent (Promega, Madison, Wis.) after 1 hour at 37° C. in a humidified incubator with 5% CO2, following the manufacturer's protocol, incorporated by reference herein. Briefly, 3T3 fibroblasts were cultured at 37° C. in a humidified incubator with 5% CO2 using Dulbecco's modified Eagle Medium (DMEM) containing 10% fetal bovine serume (FBS), pen/strep, and 2 mM glutamine (Invitrogen). Serial dilutions of dG-PGB1 and W-PBD-1 using PBS as the diluent, and 75 μl of the dilutions were transferred in triplicate into the wells of a 96-well microtiter plate. […] Finally, the absorbance at 490 mm was measured with a microplate spectrophotometer. […] The amount of viable cells was determined by subtracting the absorbance readings of media containing blank wells from every other well and comparing the ratio of the absorbance reading for each sample with that of the positive control.

CC(C)C[C@H](NC(=O)[C@H](CCCCN)NC(=O)[C@H](C)NC(=O)[C@H](Cc1ccccc1)NC(=O)[C@H](C)NC(=O)[C@H](CCCCN)NC(=O)[C@@H](N)Cc1c[nH]c2ccccc12)C(=O)N[C@@H](C)C(=O)N[C@@H](C)C(=O)N[C@@H](CCCNC(=N)N)C(=O)N[C@@H](CC(C)C)C(=O)N[C@@H](Cc1ccc(O)cc1)C(=O)N[C@@H](CCCNC(=N)N)C(=O)N[C@@H](CCCCN)C(=O)N[C@@H](C)C(=O)NCC(=O)N[C@@H](CS)C(=O)O [W-PBD1, WKAFAKLAARLYRKAGC] (H-WKAFAKLAARLYRKAGC-OH; N-terminus and C-terminus assumed)
CC50 at 1 h: 58.1 ± 7.3 µM

CC(C)C[C@H](NC(=O)[C@H](CCCCN)NC(=O)[C@H](C)NC(=O)[C@H](Cc1ccccc1)NC(=O)[C@H](C)NC(=O)[C@H](CCCCN)NC(=O)CNS(=O)(=O)c1cccc2c(N(C)C)cccc12)C(=O)N[C@@H](C)C(=O)N[C@@H](C)C(=O)N[C@@H](CCCNC(=N)N)C(=O)N[C@@H](CC(C)C)C(=O)N[C@@H](Cc1ccc(O)cc1)C(=O)N[C@@H](CCCNC(=N)N)C(=O)N[C@@H](CCCCN)C(=O)N[C@@H](C)C(=O)NCC(=O)N[C@@H](CS)C(=O)O [dG-PBD1, dansyl-GKAFAKLAARLYRKAGC] (Dansyl-GKAFAKLAARLYRKAGC-OH)
CC50 at 1 h: 19.3 ± 1.1 µM
